pIC50: −log10 of the molar value.
Biological target: T1, human 11β-HSD1 (Homo sapiens, UniProt P28845)
T1 construct: made in house
Assay: hHSD1 SPA: inhibition of 11β-HSD1 (cortisone to cortisol conversion, scintillation proximity assay)
Assay type: biochemical
Conditions: recombinant human 11β-HSD1, SPA
Experimental: Inhibition of 11β-HSD1 activity was examined by quantitative determination, by an SPA (scintillation proximity assay) system, of the suppressive action on the conversion from cortisone to cortisol using human 11β-HSD1 (hereinafter recombinant 11β-HSD1) expressed using a baculo-virus system as an enzyme source. For the reaction, a reagent was added to a 96-well plate (96-well Opti-plates™-96 (Packard)) to the following final concentration and a volume of 100 μl, and the reaction transpired at room temperature for 90 min. The reaction solution used was 0.1 μg/ml recombinant 11β-HSD1, 500 μM NADPH, 16 nM ^3H cortisone (Amersham Biosciences, […]) dissolved in 0.1% BSA (Sigma)-containing PBS and the test drug was 2 μl of a compound solution (dissolved in DMSO). […] After completion of the reaction, the plate was incubated overnight at room temperature and the radioactivity was measured by Topcount (Packard). […] The inhibition (%) of the test drug was calculated by ((value of control−value of test drug)/(value of control−value of positive control))×100(%). The IC50 value was analyzed using a computer-based curve fitting software.
Recombinant human, mouse and rat 11β-HSD1 were expressed in baculovirus expression system, isolated by affinity purification and used as the enzyme sources for cortisone to cortisol conversion in vitro. ^3H-Cortisone (Amersham Bioscience, […]. 49 Ci/mmol) was used as the substrate, and a monoclonal anti-cortisol antibody and the scintillation proximity assay (SPA) system were used to detect the product of the 11β-HSD1-catalyzed reaction, ^3H-cortisol. Reactions took place at room temperature for 90 min. in 96-well Opti-plates™-96 (Packard) in 100 μL volume with 2 μL test compounds or control in DMSO, 0.1 μg/mL 11β-HSD1 protein, 500 μM NADPH and 16 nM radioactive cortisone, in PBS buffer supplemented with 0.1% BSA (Sigma).
Plates were incubated at room temperature overnight before being read on a Topcount (Packard). The point of 50% inhibition of 11β-HSD1 enzyme activity (IC50) was determined by computer-based curve fitting.

T1 sequence (P28845 whole entry): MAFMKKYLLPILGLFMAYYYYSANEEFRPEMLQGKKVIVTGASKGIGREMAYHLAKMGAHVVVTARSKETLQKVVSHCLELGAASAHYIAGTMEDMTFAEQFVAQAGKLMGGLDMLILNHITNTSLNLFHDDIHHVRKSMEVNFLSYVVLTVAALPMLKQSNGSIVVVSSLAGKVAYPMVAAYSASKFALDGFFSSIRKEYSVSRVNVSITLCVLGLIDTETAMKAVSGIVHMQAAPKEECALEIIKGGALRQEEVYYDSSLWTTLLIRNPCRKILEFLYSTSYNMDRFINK

Row | pIC50 | SMILES
1 | 8.71 | Cc1ccc(C(=O)N(C2CC2)[C@H]2CC[C@H](CCO)CC2)c(F)c1 [Compound 1, N-cyclopropyl-2-fluoro-N-(trans-4-(2-hydroxyethyl)cyclohexyl)-4-methylbenzamide]
2 | 8.16 | Cc1ccc(C(=O)N(C2CC2)[C@H]2CC[C@H](CC(C)(C)O)CC2)c(F)c1 [Compound 2, N-cyclopropyl-2-fluoro-N-(trans-4-(2-hydroxy-2-methylpropyl)cyclohexyl)-4-methylbenzamide]
3 | 8.40 | O=C(c1ccccc1F)N(C1CC1)[C@H]1CC[C@H](CCO)CC1 [Compound 3, N-Cyclopropyl-2-fluoro-N-(trans-4-(2-hydroxyethyl)cyclohexyl)benzamide]
4 | 7.39 | O=C(c1cccc(F)c1)N(C1CC1)[C@H]1CC[C@H](CCO)CC1 [Compound 4, N-Cyclopropyl-3-fluoro-N-(trans-4-(2-hydroxyethyl)cyclohexyl)benzamide]
5 | 7.66 | O=C(c1ccc(F)cc1)N(C1CC1)[C@H]1CC[C@H](CCO)CC1 [Compound 5, N-Cyclopropyl-4-fluoro-N-(trans-4-(2-hydroxyethyl)cyclohexyl)benzamide]
6 | 8.16 | O=C(c1ccc(Cl)cc1)N(C1CC1)[C@H]1CC[C@H](CCO)CC1 [Compound 6, 4-Chloro-N-cyclopropyl-N-(trans-4-(2-hydroxyethyl)cyclohexyl)benzamide]
7 | 7.51 | O=C(c1cccc(F)c1F)N(C1CC1)[C@H]1CC[C@H](CCO)CC1 [Compound 7, N-Cyclopropyl-2,3-difluoro-N-(trans-4-(2-hydroxyethyl)cyclohexyl)benzamide]
8 | 8.97 | O=C(c1ccc(Br)cc1F)N(C1CC1)[C@H]1CC[C@H](CCO)CC1 [Compound 8, 4-Bromo-N-cyclopropyl-2-fluoro-N-(trans-4-(2-hydroxyethyl)cyclohexyl)benzamide]
9 | 8.20 | COc1ccc(C(=O)N(C2CC2)[C@H]2CC[C@H](CCO)CC2)cc1 [Compound 9]
10 | 9.03 | CC(C)c1ccc(C(=O)N(C2CC2)[C@H]2CC[C@H](CCO)CC2)cc1 [Compound 11, N-Cyclopropyl-4-isopropyl-N-(trans-4-(2-hydroxyethyl)cyclohexyl)benzamide]
11 | 7.74 | O=C(c1ccccc1)N(C1CC1)[C@H]1CC[C@H](CCO)CC1 [Compound 13, N-Cyclopropyl-N-(trans-4-(2-hydroxyethyl)cyclohexyl)benzamide]
12 | 7.68 | O=C(c1ccccc1F)N(C1CC1)[C@H]1CC[C@](CCO)(c2ccccn2)CC1 [Compound 14]
13 | 7.34 | O=C(c1cccc(F)c1)N(C1CC1)[C@H]1CC[C@](CCO)(c2ccccn2)CC1 [Compound 15]
14 | < 7.00 | O=C(c1ccc(F)cc1)N(C1CC1)[C@H]1CC[C@](CCO)(c2ccccn2)CC1 [Compound 16]
15 | 7.64 | O=C(c1ccc(Cl)cc1)N(C1CC1)[C@H]1CC[C@](CCO)(c2ccccn2)CC1 [Compound 19]
16 | 7.21 | COc1cccc(C(=O)N(C2CC2)[C@H]2CC[C@](CCO)(c3ccccn3)CC2)c1 [Compound 23]
17 | 7.23 | COc1ccc(C(=O)N(C2CC2)[C@H]2CC[C@](CCO)(c3ccccn3)CC2)cc1 [Compound 24]
18 | 7.66 | COc1ccc(C(=O)N(C2CC2)[C@H]2CC[C@](CCO)(c3ccccn3)CC2)c(F)c1 [Compound 25]
19 | 7.94 | Cc1ccc(C(=O)N(C2CC2)[C@H]2CC[C@](CCO)(c3ccccn3)CC2)cc1 [Compound 26]
20 | < 7.00 | CN(C)C(=O)c1ccc(C(=O)N(C2CC2)[C@H]2CC[C@](CCO)(c3ccccn3)CC2)cc1 [Compound 27]
21 | 8.14 | CC(C)c1ccc(C(=O)N(C2CC2)[C@H]2CC[C@](CCO)(c3ccccn3)CC2)cc1 [Compound 28]
22 | 7.92 | CC(C)(C)c1ccc(C(=O)N(C2CC2)[C@H]2CC[C@](CCO)(c3ccccn3)CC2)cc1 [Compound 29]
23 | 7.27 | O=C(c1ccc(C(F)(F)F)cc1)N(C1CC1)[C@H]1CC[C@](CCO)(c2ccccn2)CC1 [Compound 31]
24 | 7.28 | CC(C(=O)N(C1CC1)[C@H]1CC[C@H](CCO)CC1)c1ccccc1 (stereo partly drawn) [Compound 32, N-Cyclopropyl-N-(trans-4-(2-hydroxyethyl)cyclohexyl)-2-phenylpropionamide]

Source: patent US7932421B2, “N-cyclohexyl benzamides and benzeneacetamides as inhibitors of 11-beta-hydroxysteroid dehydrogenases” (Amgen Inc., priority 2006, dated 2011)
